Values after ≈ are worked out from the molar mass of the structure shown. Marks after values point to notes of the source that are not given here.
Experiments:
[1] = chloroform-buffer partition coefficient; format: physicochemical; settings: pH 7.4 phosphate buffer, B compounds as sodium salts
Description: The determination of partition coefficient is performed as follows. Chloroform - buffer partition coefficients are obtained by equilibrating the test compound between chloroform and 0.1-ionic strength pH 7.4 phosphate buffer. The concentration in each phase is determined by UV spectrophotometry or HPLC.

[2] = transcorneal penetration of drugs (in vitro corneal permeability); settings: rate constant of transfer across excised rabbit cornea, pH 7.4; for kin x 10^3 (hr^-1) No epithelium: denuded epithelium; for kin x 10^3 (hr^-1) Cornea intact: intact epithelium
Description: The determination of transcorneal penetration of drugs is performed as follows. […] Excised rabbit corneas with either intact or denuded epithelium are used in these experiments. The pH is 7.4 and exposed area is 1.2 cm^2. Concentrations of drug of 40 - 2000 µM are placed in the epithelial chamber and samples of fluid are collected from the endothelial chamber at different intervals, up to 4 hr.

hCA II = hCA II (Homo sapiens, UniProt P00918); assay: CA inhibition, esterase method (4-nitrophenylacetate hydrolysis)
Description: (§1) Stock solutions of inhibitor (1 mM) are prepared in distilled-deionized water with 10-20% (v/v) DMSO (which is not inhibitory at these concentrations) and dilutions up to 0.01 nM are done thereafter with distilled-deionized water. Inhibitor and enzyme solutions are preincubated together for 10 min at room temperature prior to assay, in order to allow for the formation of the E-I complex.

bCA IV = molecular target: T1, bCA IV (Bos taurus, UniProt Q95323); assay: as above
T1 sequence (Q95323 19-284): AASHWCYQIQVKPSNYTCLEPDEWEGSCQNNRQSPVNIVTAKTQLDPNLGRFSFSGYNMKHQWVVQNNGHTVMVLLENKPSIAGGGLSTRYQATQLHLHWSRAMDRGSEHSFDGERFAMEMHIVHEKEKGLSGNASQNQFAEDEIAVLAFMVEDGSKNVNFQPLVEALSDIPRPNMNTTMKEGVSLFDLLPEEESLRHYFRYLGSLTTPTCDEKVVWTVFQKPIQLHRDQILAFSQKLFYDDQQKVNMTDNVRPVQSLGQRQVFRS
Description: as §1

[3] = solubility in aqueous buffer (UV of saturated solution); settings: 25 °C, pH 7.4, aqueous buffer, thermodynamic from solid
Description: The determination of solubility in aqueous buffer is performed as follows. […] The UV absorption maximum of each compound is determined (with a Cary 3 spectrophotometer) eventually diluting the solution (with MeOH) as necessary. […] The obtained saturated solution is filtered in order to remove solid compound through a Millipore 0.45 µm filter and scanned by UV at the wavelength of the absorption maximum previously determined. Total solubility is determined by the relationship: C' = A'C/A, where C = concentration of standard solution (mg/mL); A = absorbance of standard solution; A' = absorbance of the saturated solution; C' = concentration of the saturated solution (mg/mL).

hCA I = hCA I (Homo sapiens, UniProt P00915); assay: CA inhibition, esterase method (4-nitrophenylacetate hydrolysis)
Chain of hCA I (P00915 whole entry): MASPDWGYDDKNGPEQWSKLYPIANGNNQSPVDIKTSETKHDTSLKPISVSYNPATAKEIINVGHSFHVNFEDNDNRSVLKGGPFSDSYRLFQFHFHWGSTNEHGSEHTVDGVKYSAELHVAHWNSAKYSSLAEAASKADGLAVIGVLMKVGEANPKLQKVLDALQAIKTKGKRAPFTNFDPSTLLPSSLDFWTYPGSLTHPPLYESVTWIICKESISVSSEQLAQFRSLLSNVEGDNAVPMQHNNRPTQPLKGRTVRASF
Description: as §1

[4] = test system: IOP of normotensive rabbits; assay: tonometric measurement of IOP after topical administration; format: in vivo, New Zealand albino rabbits; settings: for Δ IOP ± SE (mm Hg) 30 min: 30 min after one drop (50 µL) of 2% solution; for Δ IOP ± SE (mm Hg) 30 min / Δ IOP ± SE (mm Hg) 60 min / Δ IOP ± SE (mm Hg) 90 min: topical, IOP control eye - IOP treated eye (N = 3); for Δ IOP ± SE (mm Hg) 60 min: 60 min after one drop (50 µL) of 2% solution; for Δ IOP ± SE (mm Hg) 90 min: 90 min after one drop (50 µL) of 2% solution; for IOP returns to baseline values after ... from administration: topical 2% solution (Fig. 2)
Description: Tonometric measurement of IOP are performed as follows.
Adult male New Zealand albino rabbits weighing 3-3.5 kg are used in the experiments. Three animals are used for each inhibitor studied. The experimental procedures conform to the Association for Research in Vision and Ophthalmology Resolution on the use of animals. The rabbits are kept in individual cages with food and water provided ad libitum and maintained on a 12 h light/dark cycle in a temperature controlled room, at 22-26 °C. Solutions and suspensions of inhibitors (2 %, by weight, as hydrochlorides, or sodium carboxylates) are made in distilled deionized water. The pH of these solutions is in the range of 5.5 - 7.4.
IOP is measured using a Digilab 30R pneumatonometer (BioRad, Cambridge, MA, USA) as described by Maren et al. (Maren et al., Exp. Eye Res. 55:73-79, 1992; Brechue et al., Invest. Ophthalmol. Vis. Sci. 34:2581-2587,1993). The pressure readings are matched with two-point standard pressure measurements at least twice each day using a Digilab Calibration verifier. All IOP measurements are done by the same investigator with the same tonometer. One drop of 0.2 % oxybuprocaine hydrochloride (novesine, Sandoz) diluted 1:1 with saline is instilled in each eye immediately before each set of pressure measurements. IOP is measured three times at each time interval, and the means reported. IOP is measured first immediately before drug administration, then at 30 min after the instillation of the pharmacological agent, and then each 30 minutes for a period of 4-6 hours. For all IOP experiments drug is administered to only one eye, leaving the contralateral eye as an untreated control. The ocular hypotensive activity is expressed as the average difference in IOP between the treated and control eye, in this way minimizing the diurnal, seasonal and inter-individual variations commonly observed in the rabbit (Id.). All data are expressed as mean ± SE. Ocular hypertension is elicited in the right eye of albino rabbits by the injection of α-chymotrypsin (from Sigma) as described by Sugrue et al. (Sugrue et al., Br. J. Pharmacol. 99:59-64, 1990). The IOP of operated animals is checked after approximately four weeks, and animals with an elevated pressure of 30-36 mm Hg are used at least one month after the injection of α-chymotrypsin.
In vivo IOP lowering experiments are done in normotensive and glaucomatous rabbits, with many of the new compounds reported here, due to their strong CA II and CA IV inhibitory properties, such as B7, B10-B13, B15, B18-B22, B25, B27, B28, B33, B37, and A40. […] Measurements are at 30, 60 and 90 min after administration Table 3.

[5] = drug distribution in ocular fluids and tissues after topical administration; format: in vivo, albino rabbits; settings: mean ± standard deviation (n= 3)
[6] = 1h after corneal application of one drop (50 µL) of 2% solution
[7] = 2h after corneal application of one drop (50 µL) of 2% solution

| Structure (SMILES) | Log P [1] | kin x 10^3 (hr^-1) No epithelium [2] [hr^-1] | kin x 10^3 (hr^-1) Cornea intact [2] [hr^-1] | Ki (hCA II) [nM] | Ki (bCA IV) [nM] | solubility ([3]; phosphate buffer) [mM] | Ki (hCA I) [nM] | further results |
| --- | --- | --- | --- | --- | --- | --- | --- | --- |
| NS(=O)(=O)c1ccc(CNC(=S)Nc2ccccc2C(=O)O)cc1 [B11] | 1.238 | 8.3 | 2.9 | 11 | 23 | 41 (≈ 15 mg/mL) | 54 | – |
| NS(=O)(=O)c1ccc(CNC(=S)Nc2cccc(C(=O)O)c2)cc1 [B12] | 1.313 | 8.7 | 3.0 | 10 | 29 | 40 (≈ 14.6 mg/mL) | 38 | – |
| NS(=O)(=O)c1ccc(CNC(=S)Nc2ccc(C(=O)O)cc2)cc1 [B13] | 1.428 | 9.1 | 3.3 | 9 | 21 | 46 (≈ 16.8 mg/mL) | 47 | Δ IOP ± SE (mm Hg) 30 min [4]: 1.2±0.15 mm Hg; Δ IOP ± SE (mm Hg) 60 min [4]: 7.0±0.15 mm Hg; Δ IOP ± SE (mm Hg) 90 min [4]: 10.3±0.20 mm Hg; Drug concentration (µM) Aqueous humor [5, 6]: 204 ± 13 µM; Drug concentration (µM) Ciliary process [5, 6]: 50 ± 7 µM; Drug concentration (µM) Cornea [5, 6]: 123 ± 9 µM; Drug concentration (µM) Aqueous humor [5, 7]: 62 ± 4 µM; Drug concentration (µM) Ciliary process [5, 7]: 23 ± 2 µM; Drug concentration (µM) Cornea [5, 7]: 76 ± 5 µM |
| NS(=O)(=O)c1ccc(CNC(=S)NC(C(=O)O)c2ccccc2)cc1 (stereo not shown) [B18] | 3.721 | 12.0 | 5.6 | 5 | 12 | 59 (≈ 22.4 mg/mL) | 40 | – |
| NS(=O)(=O)c1ccc(CNC(=S)NC(CO)C(=O)O)cc1 (stereo not shown) [B19] | 1.662 | 8.5 | 3.3 | 2 | 9 | 70 (≈ 23.3 mg/mL) | 23 | IOP returns to baseline values after ... from administration [4]: 5 to 6 h |
| NS(=O)(=O)c1ccc(CNC(=S)NC(C(=O)O)C(O)c2ccccc2)cc1 (stereo not shown) [B20] | 2.518 | 10.7 | 4.9 | 1 | 7 | 51 (≈ 20.9 mg/mL) | 20 | IOP returns to baseline values after ... from administration [4]: 5 to 6 h; Drug concentration (µM) Aqueous humor [5, 6]: 205 ± 12 µM; Drug concentration (µM) Ciliary process [5, 6]: 49 ± 5 µM; Drug concentration (µM) Cornea [5, 6]: 133 ± 10 µM; Drug concentration (µM) Aqueous humor [5, 7]: 53 ± 5 µM; Drug concentration (µM) Ciliary process [5, 7]: 15 ± 1 µM; Drug concentration (µM) Cornea [5, 7]: 70 ± 9 µM |
| NS(=O)(=O)c1ccc(CNC(=S)NC(CS)C(=O)O)cc1 (stereo not shown) [B22] | 0.124 | 0.9 | 0.4 | 3 | 8 | 65 (≈ 22.7 mg/mL) | 21 | – |
| NC(=O)CC(NC(=S)NCc1ccc(S(N)(=O)=O)cc1)C(=O)O (stereo not shown) [B28] | – | – | – | 5 | 9 | – | 22 | IOP returns to baseline values after ... from administration [4]: 5 to 6 h |
| NS(=O)(=O)c1ccc(CNC(=S)NCCC(=O)NC(Cc2cnc[nH]2)C(=O)O)cc1 (stereo not shown) [B40] | 0.933 | 5.9 | 2.8 | 4 | 9 | – | 22 | solubility at 3 h [3]: 57 mM (≈ 25.9 mg/mL) |
| CCN[C@H]1C[C@H](C)S(=O)(=O)c2sc(S(N)(=O)=O)cc21 [Dorzolamide, dorzolamide, reference compound] | 2.0^e | 5.2 | 3.0 | – | – | – | – | Δ IOP ± SE (mm Hg) 30 min [4]: 2.2±0.15 mm Hg; Δ IOP ± SE (mm Hg) 30 min ([4]; listed as dorzolamide): 2.2 mm Hg; Δ IOP ± SE (mm Hg) 60 min [4]: 4.1±0.15 mm Hg; Δ IOP ± SE (mm Hg) 60 min ([4]; listed as dorzolamide): 4.1 mm Hg; Δ IOP ± SE (mm Hg) 90 min [4]: 2.7±0.10 mm Hg; solubility at 3 h ([3]; phosphate buffer): 60 mM (≈ 19.5 mg/mL) |
| CCOc1ccc2nc(S(N)(=O)=O)sc2c1 [Ethoxzolamide, ethoxzolamide, reference compound] | 1.40 | – | – | – | – | – | – | solubility at 3 h ([3]; phosphate buffer): 0.04 mM (≈ 0.0103 mg/mL) |
| CC(=O)/N=c1/sc(S(N)(=O)=O)nn1C [Methazolamide, methazolamide, reference compound] | 0.06 | 13 | 1.90 | – | – | – | – | – |
